Three molecules from patent EP1043331A1, “BONE-RESORPTIVE CYTOKINE INHIBITOR CONTAINING DIENOGEST AS THE ACTIVE INGREDIENT” (MOCHIDA PHARMACEUTICAL CO., LTD., priority 1997, dated 1999) can be followed below.

Marks after values point to notes of the source that are not given here.

What all share (type): cell-based, mouse
One assay relates to cAMP. Kind of assay: cAMP content in murine osteoblast (time-resolved fluorometry). The conditions noted are these: Fig.1. As to the method: According to the method by Johansen, et al. (Journal Bone and Mineral Research, Vol.7, pp.501-509, 1992), osteoblast was collected from the femoral bones of a female SLC : ICR mouse of age 15 weeks. Under anesthesia with pentobarbital sodium (25 mg/kg, intraperitoneal administration), postcava was cut to bleed and kill the animal to death. Then, bilateral femoral bones were resected. This bone was cut with a pair of bone scissors, to remove the bone marrow with a micro-loop. The inner face of the bone was rubbed off with a sharp blade. The resulting matter was agitated in a 10 % collagenase solution (Nitta gelatin) at 37 °C for 20 minutes, and to the resulting mixture was added a culture medium (an MEM culture medium supplemented with 10 % charcoal-treated bovine fetal serum; manufactured by Nissui Pharmaceutical, Co. Ltd.) prior to centrifugation (300×g, 5 minutes and 20 °C). The resulting cells were dispersed in a fresh culture medium and then inoculated on a plastic culture dish (diameter of 35 mm, Primaria (Falcon)). […] Osteoblast was identified by using alkali phosphatase staining as an osteoblast marker. For recovering osteoblast from an animal after ovariectomy, ovariectomy was carried out at age 11 weeks, and the animal was fed for the following 4 weeks, prior to the same treatment. 1×10^4 cells/ml osteoblast suspension (100 µl), a culture medium (890 µl) and a drug solution (10 µl) were added into each well of a plastic 24-well culture plate (Falcon), for culturing at 37 °C in 5 % CO2/95 % air for 24 hours, and then, the resulting culture was centrifuged (300 ×g, 5 minutes, 20°C) to recover the supernatant, which was defined as a cytokine assay sample. […] For experiments, furthermore, three dishes per each group were used. […] After rinsing with a DELFIA rinse solution, an enhancer reagent (100 µl) was added, for agitation at room temperature for 5 minutes, to determine the fluorescence intensity with a time-resolved fluorometer. Based on a preliminarily prepared standard curve, cAMP content was calculated.

A further assay has as its system IL-1β. Kind of assay: IL-1β release from murine osteoblast (culture supernatant cytokine assay). The conditions noted are these: 24 hours culture. As for the experimental part: Under anesthesia with pentobarbital sodium (25 mg/kg, intraperitoneal administration), postcava was cut to bleed and kill the animal to death. Then, bilateral femoral bones were resected. This bone was cut with a pair of bone scissors, to remove the bone marrow with a micro-loop. The inner face of the bone was rubbed off with a sharp blade. The resulting matter was agitated in a 10 % collagenase solution (Nitta gelatin) at 37 °C for 20 minutes, and to the resulting mixture was added a culture medium (an MEM culture medium supplemented with 10 % charcoal-treated bovine fetal serum; manufactured by Nissui Pharmaceutical, Co. Ltd.) prior to centrifugation (300×g, 5 minutes and 20 °C). The resulting cells were dispersed in a fresh culture medium and then inoculated on a plastic culture dish (diameter of 35 mm, Primaria (Falcon)). […] Osteoblast was identified by using alkali phosphatase staining as an osteoblast marker. For recovering osteoblast from an animal after ovariectomy, ovariectomy was carried out at age 11 weeks, and the animal was fed for the following 4 weeks, prior to the same treatment.
Dienogest as a test substance was dissolved and diluted in dimethylsulfoxide (DMSO, manufactured by Wako Pure Chemical Industries, Ltd.) for use. As a control substance, furthermore, MPA and danazol were used after they were dissolved and diluted in DMSO. DMSO was used as a solvent control.
The final concentrations of the drug were 10^-11, 10^-10 and 10^-9 M. For experiments, furthermore, three dishes per each group were used.
Using SMRART ™ (Pharmacia Biotech, Uppsala, Sweden), the supernatant was concentrated by about 10 fold, after the termination of culturing. The level of cytokine in the sample was assayed by using assay kits of murine IL-1β, IL-6 and TNF-α (Cytoscreen™, BioSource International, Camarillo, Calif. CA, USA) and europium-labeled streptoavidin (Pharmacia Biotech).

The next assay relates to murine osteoclast. As to the kind of experiment: Pit formation by murine osteoclast on ivory disks. The conditions noted are these: 3 days culture on ivory disk, control 0.16. As to the method: After an ICR mouse of age 13 days was bled to death under anesthesia (pentobarbital sodium), bilateral femoral bones were resected. In an α-MEM culture medium (Gibco), the femoral bones were cut into pieces with a pair of bone scissors for 5 minutes, and the resulting pieces were agitated with a vortex mixer for 30 seconds. The cell suspension was centrifuged (1000 g, 2 min., 15 °C), and the resulting supernatant was discarded. The precipitate was suspended in an α-MEM culture medium, to adjust the suspension to a cell number of 1×10^7 cells/ml.
A purchased ivory piece was processed into a disk of a diameter of 5.5 mm and a thickness of 200 µm, by using a precision low-speed cutter (manufactured by BUEHLER) and a cut blade. The disk was then treated under ultrasonication in distilled water, and was immersed in an α-MEM culture medium (culture medium) supplemented with 10 % bovine fetal serum (Dai-Nippon Pharmaceuticals, Co.) treated with charcoal. The resulting each disk was placed in each well of a 96-well culture plate (Falcon), to which was added 100 µl of the drug solution. The osteoclast suspension was inoculated at 1×10^6 cells(100µl) thereon, for culturing at 37 °C in 5 % CO2/95 % air for 3 days. All the drugs were adjusted to final concentrations of 10^-11, 10^-10 and 10^-9 M. Additionally, five samples per each concentration were experimented.
Absorbency was determined by calculating a phargocytized area on the bone. More specifically, the ivory piece after the treatment with the drugs was wiped with gauze, rinsed with an ultrasonication machine for 30 minutes, and stained with an acid hematoxylin solution (Sigma Chemical Co., Ltd.) for 5 minutes. The piece was then rinsed in distilled water, and the phargocytized absorption area was measured with an image analyzer (Luzex, Nireco) at 100 magnification. Nine different parts were counted per each ivory piece, to calculate the average.

[1] abbreviates: doses of 10^-11, 10^-10 and 10^-9 M.
Where [2] appears, read: osteoblast of non-treated mouse, 10^-9 M, control 13.9.
The mark [3] stands for this setting: osteoblast of non-treated mouse, 10^-10 M, control 13.9.
Where [4] appears, read: osteoblast of non-treated mouse, 10^-11 M, control 13.9.
Where [5] appears, read: osteoblast of ovariectomized mouse, 10^-9 M, control 26.3.
Where [6] appears, read: osteoblast of ovariectomized mouse, 10^-10 M, control 26.3.
The mark [7] stands for this setting: osteoblast of ovariectomized mouse, 10^-11 M, control 26.3.

With `C#C[C@]1(O)CC[C@H]2[C@@H]3CCC4=Cc5oncc5C[C@]4(C)[C@H]3CC[C@@]21C` [Danazol, danazol], the “cAMP content in murine osteoblast” value in the assay on cAMP (setting [1]) is reported as “did not affect”. Besides, the IL-1β is 15.4* pg/ml with IL-1β (setting [2]); 13.8 pg/mL in the assay with IL-1β (setting [3]); 13.6 pg/mL in the assay with IL-1β (setting [4]); 28.1** pg/ml with IL-1β (setting [5]); 26.0 pg/mL in the assay on IL-1β (setting [6]); 25.2 pg/mL in the assay on IL-1β (setting [7]). In addition, the entries for the “pit formation due to murine osteoclast (phargocytized absorption area)” value (“pit formation due to murine osteoclast” for short) in the assay with murine osteoclast (10^-9 M), in the assay on murine osteoclast (10^-10 M) and in the assay with murine osteoclast (10^-11 M) were 0.16, 0.15 and 0.16, respectively.
In the case of `C[C@]12CCC3=C4CCC(=O)C=C4CC[C@H]3[C@@H]1CC[C@@]2(O)CC#N` [Dienogest, 17 α-cyanomethyl-17β-hydroxy-estra-4,9(10)-dien-3-one], the “cAMP content in murine osteoblast” value with cAMP (at a concentration of 10^-9 M or more) was “significantly increased”. Also, the IL-1β was 12.0** pg/ml in the assay on IL-1β (setting [2]); 13.7 pg/mL with IL-1β (setting [3]); 14.4 pg/mL in the assay with IL-1β (setting [4]); 23.1** pg/ml in the assay on IL-1β (setting [5]); 23.8* pg/ml in the assay on IL-1β (setting [6]); 26.1 pg/mL in the assay with IL-1β (setting [7]). In addition, the “pit formation due to murine osteoclast” value was 0.10** in the assay on murine osteoclast (10^-9 M), 0.15 in the assay on murine osteoclast (10^-10 M) and 0.15 with murine osteoclast (10^-11 M).
Regarding `CC(=O)O[C@]1(C(C)=O)CC[C@H]2[C@@H]3C[C@H](C)C4=CC(=O)CC[C@]4(C)[C@H]3CC[C@@]21C` [MPA, medroxyprogesterone acetate], in the assay on cAMP (setting [1]), the “cAMP content in murine osteoblast” value was “did not affect”. The IL-1β is 16.9* pg/ml with IL-1β (setting [2]); 14.4 pg/mL with IL-1β (setting [3]); 13.3 pg/mL with IL-1β (setting [4]); 30.2** pg/ml with IL-1β (setting [5]); 25.9 pg/mL in the assay with IL-1β (setting [6]); 26.3 pg/mL in the assay with IL-1β (setting [7]). Besides, the “pit formation due to murine osteoclast” value with murine osteoclast (10^-9 M), in the assay with murine osteoclast (10^-10 M) and in the assay on murine osteoclast (10^-11 M) was 0.16 throughout.
